# Reference: ChEMBL document CHEMBL1156479, “Reversine increases the plasticity of lineage-committed mammalian cells” (Proc Natl Acad Sci U S A, 2007)
# Assays:
# [1] = Inhibition of ATPase activity of myosin 2 in mouse C2C12 myoblast assessed as release of inorganic phosphates
# [2] = tested on: C2C12; test: Inhibition of myotube formation in mouse C2C12 myoblasts at 20 nM; conditions: C2C12, read-out: INH
# [3] = target: Dual specificity mitogen-activated protein kinase kinase 1 (Mus musculus, UniProt P31938); test: Inhibition of MEK1 in mouse C2C12 by ERK2 phosphorylation assay
# Dual specificity mitogen-activated protein kinase kinase 1, sequence (P31938 whole entry): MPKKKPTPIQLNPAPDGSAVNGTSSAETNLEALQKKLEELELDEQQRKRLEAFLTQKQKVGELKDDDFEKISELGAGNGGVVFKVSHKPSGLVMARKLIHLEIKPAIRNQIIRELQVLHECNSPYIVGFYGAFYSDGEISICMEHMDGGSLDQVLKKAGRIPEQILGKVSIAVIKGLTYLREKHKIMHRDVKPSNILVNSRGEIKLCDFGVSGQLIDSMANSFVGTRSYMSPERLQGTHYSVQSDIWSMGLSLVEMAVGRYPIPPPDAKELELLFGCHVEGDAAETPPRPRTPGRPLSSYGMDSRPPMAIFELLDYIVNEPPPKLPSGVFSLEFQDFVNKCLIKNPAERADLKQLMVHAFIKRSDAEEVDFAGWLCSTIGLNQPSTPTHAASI
smiles,measurement,setting,value
c1nc2c(NC3CCCCC3)nc(Nc3ccc(N4CCOCC4)cc3)nc2[nH]1 [REVERSINE],IC50,[1],10 nM
same,inhibition at 0.02 µM,[2],> 60%
same,IC50,[3],8 nM
